The values that follow come from ChEMBL document CHEMBL3758156, “The importance of triazole scaffold in the development of anticonvulsant agents” (Eur J Med Chem, 2016).

In data set [1] the test system is Mus musculus. The data set is described as follows: Anticonvulsant activity in ip dosed C57BL/6 mouse assessed as protection against maximal electroshock-induced seizures measured at 5 secs intervals over 4 hrs by MES test. Type of data set: functional. The conditions noted are these: C57B/6, ip.
In data set [2] the test system is Mus musculus. In words: Anticonvulsant activity in ip dosed C57BL/6 mouse assessed as protection against maximal electroshock-induced seizures measured at 30 mins interval over 4 hrs by MES test. Type of data set: functional. To be noted: C57B/6, ip.
A short description of data set [3]: Protective index, ratio of TD50 for neurotoxicity in ip dosed C57BL/6 mouse to ED50 for anticonvulsant activity in ip dosed C57BL/6 mouse. In kind it is toxicity, organism-based, C57B/6. The conditions noted are these: in vivo.
Data set [4] can be described thus: Protective index, ratio of TD50 for neurotoxicity in ip dosed Swiss mouse by rotarod test to ED50 for anticonvulsant activity in ip dosed Swiss mouse by MES test. In kind it is toxicity, organism-based. To be noted: in vivo, read-out: Ratio TD50/ED50.
Data set [5] relates to Mus musculus. In words: Anticonvulsant activity in ip dosed Swiss mouse assessed as protection against maximal electroshock-induced seizures administered 30 mins prior to electrical stimulation by MES test. Type of data set: functional.
In data set [6] the test system is Mus musculus. The data set is described as follows: Anticonvulsant activity in ip dosed NMRI mouse assessed as protection against PTZ-induced seizures administered 30 mins prior to PTZ injection measured after 30 mins. Type of data set: functional.
The subject of data set [7] is Mus musculus. In words: Anticonvulsant activity in mouse assessed as protection against maximal electroshock-induced seizures at 50 and 100 mg/kg by MES test. Type of data set: functional.
Data set [8] in a line: Protective index, ratio of TD50 for neurotoxicity in ip dosed Kunming mouse to ED50 for anticonvulsant activity in ip dosed Kunming mouse. In kind it is toxicity, organism-based. To be noted: in vivo, read-out: PI.
For data set [9], the system named is Mus musculus. The data set is described as follows: Anticonvulsant activity in ip dosed Kunming mouse assessed as protection against maximal electroshock-induced seizures […]. Type of data set: functional.
Data set [10] relates to Mus musculus. The data set is described as follows: Anticonvulsant activity in NMRI mouse assessed as protection against PTZ-induced seizures at 100 mg/kg, ip administered 30 mins prior to PTZ injection measured for 30 mins. In kind it is functional.
For data set [11], the system named is Mus musculus. In words: Anticonvulsant activity in NMRI mouse assessed as protection against maximal electroshock-induced seizures at 100 mg/kg, ip by MES test. In kind it is functional.
Data set [12] deals with Mus musculus. The data set is described as follows: Anticonvulsant activity in ip dosed Swiss mouse assessed as protection against strychnine-induced tonic extensor after 30 mins. To be noted: 0.5 h. Type of data set: functional.
For data set [13], the system named is Mus musculus. The data set is described as follows: Anticonvulsant activity in ip dosed Swiss mouse assessed as protection against PTZ-induced seizures administered 30 mins prior to PTZ challenge. Type of data set: functional.
For data set [14], the system named is Mus musculus. The data set is described as follows: Anticonvulsant activity in BALB/c mouse assessed as protection against maximal electroshock-induced seizures at 30 mg/kg, po after 1 hr by MES test. Type of data set: functional.
The subject of data set [15] is Mus musculus. In words: Anticonvulsant activity in ip dosed Kunming mouse assessed as protection against maximal electroshock-induced seizures after 30 mins by MES test. To be noted: 0.5 h. In kind it is functional.
The nature of data set [16]: Neurotoxicity in ip dosed Kunming mouse after 15 mins by rotarod test. Type of data set: toxicity, organism-based. The conditions noted are these: in vivo.
The subject of data set [17] is Mus musculus. In words: Anticonvulsant activity in albino Swiss mouse assessed as protection against PTZ-induced seizures at 100 mg/kg, ip administered 2 hrs prior to PTZ injection measured after 60 mins. Type of data set: functional.
The nature of data set [18]: Protective index, ratio of TD50 for neurotoxicity in ip dosed Swiss mouse to ED50 for anticonvulsant activity in ip dosed Swiss mouse. In kind it is toxicity, organism-based. The conditions noted are these: in vivo, read-out: Ratio TD50/ED50.
Data set [19] concerns Mus musculus. The data set is described as follows: Anticonvulsant activity in po dosed CD1 mouse assessed as protection against strychnine-induced seizures administered 0.5 hr prior to strychnine challenge. Type of data set: functional.
The nature of data set [20]: Neurotoxicity in ip dosed C57BL/6 mouse after 30 mins by rotarod test. In kind it is toxicity, organism-based, C57B/6. To be noted: in vivo.
Data set [21] has as its system Mus musculus. The data set is described as follows: Anticonvulsant activity in lithium-pilocarpine NMRI mouse model assessed as inhibition of pilocarpine-induced seizures at 10 mg/kg, ip administered 30 mins prior to pilocarpine injection measured for 60 mins. In kind it is functional.

For `Fc1cccc(C2Cc3nncn3-c3ccccc32)c1` (stereo unspecified), the ED50 in the data set with Mus musculus [1] worked out at 22 mg/kg; in the data set on Mus musculus [2] it was 27.4 mg/kg. For the same molecule, the selectivity ratio in [3] (read-out: PI) came out at 3.33.
With `Clc1ccc(Oc2nn3cnnc3c3ccccc23)cc1`, the selectivity ratio in data set [4] is 5.2. In the data set with Mus musculus [5], the ED50 came to 7.1 mg/kg.
On to `Nc1nnc(-c2ccc(Cl)cc2Oc2ccccc2Cl)[nH]1`, for which, in the data set on Mus musculus [6], the ED50 amounted to 12 mg/kg.
With `CCn1c(S)nnc1-c1sc(-c2ccccc2)nc1C`, in the data set with Mus musculus [7], the Activity worked out at 80%.
With `Clc1ccc(-c2nn3cnnc3s2)cc1`, the selectivity ratio in [8] is 10.8. In the data set with Mus musculus [9], the ED50 came to 23.7 mg/kg.
As for `CCCCCCCOc1nn2cnnc2c2ccccc12`, the selectivity ratio in [4] amounted to 8. Moreover, in the data set with Mus musculus [5], the ED50 was determined as 11 mg/kg.
As for `CCCCCCOc1ccc2c(c1)c(-c1ccccc1)cc1nncn12`, the ED50 in the data set on Mus musculus [2] turned out to be 6.5 mg/kg. Moreover, the selectivity ratio in data set [3] (read-out: PI) was 35.1.
`Clc1ccc(-c2nc(Cn3cncn3)cs2)cc1`: the Activity with Mus musculus [10] and with Mus musculus [11] was 100% throughout.
On to `Cc1nn2c(C(N)=O)nnc2cc1Cc1c(Cl)cccc1Cl`, for which the results for the ED50 with Mus musculus [12], with Mus musculus [5] and with Mus musculus [13] were 62.9 mg/kg, 12.5 mg/kg and 91.1 mg/kg, respectively.
On to `Cn1c(SCc2ccccc2)nnc1-c1ccc(N)cc1`, for which, in the data set with Mus musculus [14], the Activity was 50%.
With `Fc1ccccc1COc1ccc2c(c1)SCc1nncn1-2`, the ED50 with Mus musculus [15] is 17 mg/kg. This molecule also yielded a TD50 at 0.25 h in data set [16] of 244 mg/kg.
Regarding `CC1=NNC(=O)/C1=N\Nc1ccc(-c2n[nH]c(=S)n2-c2ccccc2)cc1`, in the data set with Mus musculus [17], the Activity worked out at 30%.
With `Clc1ccc(C2=Nn3cnnc3SC2)cc1`, the selectivity ratio in data set [8] came out at 6.5. In addition, in the data set with Mus musculus [9], the ED50 is 40.9 mg/kg.
With `Nc1nnc(-c2ccc(Cl)cc2Oc2ccccc2F)[nH]1`, in the data set with Mus musculus [6], the ED50 was 1.4 mg/kg.
Turning to `Fc1ccc(-n2c(-c3cccc(Cl)c3)n[nH]c2=S)cc1`, the selectivity ratio in [18] stood at 3.9.
For `Cn1c(-c2ccccc2)nnc1S(C)(=O)=O`, the ED50 is 7.3 mg/kg in the data set with Mus musculus [19] and 55 mg/kg in the data set on Mus musculus [13].
For the molecule `CCCCCCCOc1ccc2c(c1)CCc1nn(C(=O)CC)c(=O)n1-2`, the ED50 in the data set with Mus musculus [2] was found to be 8.2 mg/kg. Also, in data set [3] (read-out: Ratio TD50/ED50), the selectivity ratio was determined as 39. Moreover, the TD50 at 0.5 h in data set [20] came to 318 mg/kg.
Turning to `O=C1c2ccccc2OCC1n1cncn1` (stereo unspecified), the inhibition in vivo at 10 mg/kg with Mus musculus [21] stood at 49%.
Regarding `CC1=NNC(=O)/C1=N\Nc1ccc(-c2n[nH]c(=O)n2-c2ccccc2)cc1`, the Activity in the data set with Mus musculus [17] turned out to be 30%.
With `CCCCCCCOc1nncn1-c1ccc(OCCCCCC)cc1`, the ED50 in the data set on Mus musculus [15] is 37.3 mg/kg. For the same molecule, the selectivity ratio in [8] is 11.3.
For `CCCCCCCOc1cc(-c2ccccc2)nc2ncnn12`, in the data set on Mus musculus [9], the ED50 came out at 84.9 mg/kg.
